Data set [1] has as its system keratinocyte growth factor (KGF). Kind of data set: Expression of keratinocyte growth factor in NHDF cells (real-time PCR). Format: cell-based, human. To be noted: four hours, control = 1.0. From the text:
The confirmation that glucosyladenosines have an action of enhancing the differentiation of keratinocytes in Experiments 5 and 7 led to an examination on keratinocyte proliferation. The effects of 5′- and […] on the expression of keratinocyte growth factor (KGF) in normal human dermal fibroblasts (NHDF) were compared. […] After the culture, the supernatant in each well was removed and added with 5′-glucosyladenosine obtained by the method in Experiment 1-2 or 3′-glucosyladenosine obtained by the method in Experiment 2, which were respectively diluted with a DMEM medium supplemented with 1 v/v % FCS to give respective concentrations of 0.15 mM and 1.5 mM. A DMEM medium supplemented with 1 v/v % FCS but with no glucosyladenosines was used as a control. The cells were cultured at 37° C. for four hours under a 5 v/v % CO2 condition, washed twice with PBS(−) after removing the culture supernatants in each well by aspiration, and fed to an RNA extraction.
“QIA shledder+RNeasy Mini Kit”, a product name of a commercialized RNA extraction kit, produced by GIAGEN Benelux B.V., Netherlands, was used to extract the total RNAs. The handlings followed the operating instructions attached to the kit. Using “Super Script VILO cDNA Synthesis Kit”, a product name of a cDNA synthesis kit, commercialized by Invitrogen Corporation, CA, USA, an RT reaction was conducted under the conditions of treating a mixture of 10.5 μl of RNA, three microliters of 5×VILO reaction mix, 1.5 μl of 10× enzyme mix (15 μl in total) at 25° C. for 10 min, 42° C. for 60 min, and then 85° C. for five minutes.
Using “LightCycler 480 SYBR Green I Master”, a product name of Roche Diagnostics K.K., Tokyo, Japan, a real-time PCR reaction was conducted by mixing 1.8 μl of water, 6.0 μl of master mix, 0.6 μl of primer L (10 μM), 0.6 μl of primer R (10 μM), and 3.0 μl of template (12.0 μl in total), and treated with 45 cycles of a successive incubation cycle at 95° C. for 10 sec, 60° C. for 10 sec, and 72° C. for 15 sec). The KGF expression level in each sample was calculated from a standard curve and calibrated with the expression level of an internal standard (18s rRNA). Relative value for each sample was determined, when the expression level of the control was regarded as 1.0, and evaluated. The primers used were of Table 9.

The subject of data set [2] is three-dimensional skin model (EPI-200 Kit). Kind of data set: Residual property in three-dimensional skin model (composition of permeated solution after 24 hours). The note with it: 0.1% test sample in 30% ethanol.
Procedure: (§1) “EPI Assay Medium”, a product name of EPI100 assay medium commercialized by Kurabo Industries Ltd., Okayama, Japan, was added to “12-WELL MULTI-MICROPLATE”, a product name of 12-well plate commercialized by Becton, Dickinson and Company, NJ, USA, in a volume of 0.33 ml/well; and “EPI-200 Kit”, a product name of a three-dimensional skin model cup, commercialized by Kanebo Cosmetics Inc., Tokyo, Japan, was transferred to each well. […] 5′-Glucosyladenosine prepared by the method in Experiment 1-2,3′-glucosyladenosine prepared by the method in Experiment 2, or adenosine was dissolved in 30% ethanol to give a final concentration of 0.1%, and 0.1 ml of each of the resulting solutions was added to each of the skin model cup. After incubating at 37° C. for 24 hours in a 5% CO2 condition, sample solutions (media in wells) were collected, subjected to ultrafiltration with “[sequence] 0.5 BIOMAX-5 MEMBRANE”, a product name of membrane commercialized by Nihon Millipore K.K., Tokyo, Japan, and diluted with the mobile phase. The diluent was subjected to HPLC under the following conditions and determined for the contents of 5′- and 3′-glucosyladenosines with an alternatively prepared standard curve.
<Conditions for HPLC Analysis>
(§2) Apparatus: an HPLC Pump, MODEL 510; a pump controller, MODEL 680; an autoinjector, MODEL 712; a detector, MODEL 2487; a data processing (quantity calculation), EMPOWER 2 SOFTWARRE, commercialized by Nihon Millipore K.K., Tokyo, Japan;
(§3) Column: “YMC-PACK ODS AQ-303”, a product name of an ODS column, ø4.6 mm×250 mm, commercialized by YMC Co., Ltd., Kyoto, Japan;
(§4) Mobile phase: {20 mM Acetic acid-ammonium acetate buffer (pH 3.5)}/(methanol)=92/8 (v/v);
Detection wavelength: 260 nm;
Injection volume: 10 μl; and
Column temperature: 40° C.
The test system is the same in data set [3]. To be noted: human, 24 h, 0.1 %.
Procedure: as §1
<Conditions for HPLC Analysis>
as §2, §3, §4
Detection wavelength: 260 nm;
Injection volume: 10 μl; and
Column temperature: 40° C.

Regarding `Nc1ncnc2c1ncn2[C@@H]1O[C@H](CO)[C@@H](O[C@H]2O[C@H](CO)[C@@H](O)[C@H](O)[C@H]2O)[C@H]1O` [3′-Glucosyladenosine, α-D-glucopyranosyl-(1→3′)-adenosine], the figures for the “Relative expression level of KGF” value in data set [1] (0.15 mM) and in data set [1] (1.5 mM) were 2.3 and 2.7, respectively. The “Composition of permeated solution: 3′-glucosyladenosine” value in data set [2] is listed as 27%. In addition, in data set [2], the “Concentration of 3′-glucosyladenosine in permeated solution” value is 25 µM.

Consider `Nc1ncnc2c1ncn2[C@@H]1O[C@H](CO[C@H]2O[C@H](CO)[C@@H](O)[C@H](O)[C@H]2O)[C@@H](O)[C@H]1O` [5′-Glucosyladenosine, α-D-glucopyranosyl-(1→5′)-adenosine], for which the “Relative expression level of KGF” value in data set [1] (0.15 mM) is recorded as 0.9; in data set [1] (1.5 mM), 1.4. Moreover, the “Composition of permeated solution: 5′-glucosyladenosine” value in data set [2] turned out to be 65%. For the same compound, the “Concentration of 5′-glucosyladenosine in permeated solution” value in data set [2] was determined as 60 µM.

As for `Nc1ncnc2c1ncn2[C@@H]1O[C@H](CO)[C@@H](O)[C@H]1O` [Adenosine, reference compound], in data set [3], the “Composition of permeated solution: adenosine” value worked out at 0%, the “Composition of permeated solution: hypoxanthine” value was 77%, the “Composition of permeated solution: inosine” value was 23% and the “Concentration of adenosine in permeated solution” value came out at 0 nM. Moreover, in data set [3], the “Concentration of hypoxanthine in permeated solution” value came out at 187 µM and the “Concentration of inosine in permeated solution” value came out at 55 µM.

The values are drawn from patent publication US9492368B2, “External preparation for skin” (HAYASHIBARA CO., LTD., priority 2011, dated 2016).
